Laboratory results published in patent publication US6472418B1, “Non-peptide NK1 receptors antagonists” (Warner-Lambert Company, priority 1998, dated 2002).

What follows are compounds tested against T1, Human NK1 Receptor (Homo sapiens, UniProt P25103) (assay: In Vitro Human NK1 Receptor Binding Assay ([125I]Bolton-Hunter substance P displacement, IM9 cells)). Conditions: Human lymphoma IM9 cells, [125I]Bolton-Hunter substance P; Table 3, array-synthesis products; read-out: IC50 (nM) hNK1.
T1 construct: endogenous in cells; host or cells: Human lymphoma IM9 cells (whole cells)
T1 sequence (P25103 whole entry): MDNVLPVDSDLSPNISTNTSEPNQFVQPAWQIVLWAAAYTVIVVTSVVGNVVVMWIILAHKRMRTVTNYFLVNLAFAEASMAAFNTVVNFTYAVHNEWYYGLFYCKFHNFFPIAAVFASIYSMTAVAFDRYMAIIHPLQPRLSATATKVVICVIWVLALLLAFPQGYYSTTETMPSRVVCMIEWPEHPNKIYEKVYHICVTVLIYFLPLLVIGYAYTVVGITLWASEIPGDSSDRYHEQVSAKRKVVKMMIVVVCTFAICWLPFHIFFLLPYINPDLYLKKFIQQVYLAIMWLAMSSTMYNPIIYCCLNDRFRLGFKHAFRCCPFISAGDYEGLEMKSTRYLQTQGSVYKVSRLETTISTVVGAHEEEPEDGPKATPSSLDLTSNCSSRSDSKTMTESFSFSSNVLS
Procedure, shortened: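 Radioligand displacement on whole IM9 human lymphoma cells (2.5×10^6 cells/mL) using [125I]Bolton-Hunter substance P (0.05-0.1 nM), 50 min at 21° C in Tris pH 7.4/MnCl2 buffer with protease inhibitors. Non-specific binding defined by […] [Sar9, Met(O2)11] substance P. Filtration, gamma counting, iterative curve fitting.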
O=C(NCc1ccccc1Br)C(Cc1c[nH]c2ccccc12)NCc1cc2ccccc2o1 (centres unmarked) [Example 302, 2-[(Benzofuran-2-ylmethyl)-amino]-N-(2-bromo-benzyl)-3-(1H-indol-3-yl)-propionamide] gave an IC50 of 174 nM.
O=C(O)C1CCC(CNC(=O)C(Cc2c[nH]c3ccccc23)NCc2cc3ccccc3o2)CC1 (centres unmarked) [Example 286, 4-{[2-[(Benzofuran-2-ylmethyl)-amino]-3-(1H-indol-3-yl)-propionylamino]-methyl}-cyclohexanecarboxylic acid] showed an IC50 greater than 10000 nM.
COc1ccc(CCNC(=O)C(Cc2c[nH]c3ccccc23)NCc2cc3ccccc3o2)cc1 (centres unmarked) [Example 271, 2-[(Benzofuran-2-ylmethyl)-amino]-3-(1H-indol-3-yl)-N-[2-(4-methoxy-phenyl)-ethyl]-propionamide] was tested, and the IC50 was 196 nM.
O=C(NCc1cccc(C(F)(F)F)c1)C(Cc1c[nH]c2ccccc12)NCc1cc2ccccc2o1 (centres unmarked) [Example 228, 2-[(Benzofuran-2-ylmethyl)-amino]-3-(1H-indol-3-yl)-N-(3-trifluoromethyl-benzyl)-propionamide] showed an IC50 of 82 nM.
O=C(NCC1CCNC1)C(Cc1c[nH]c2ccccc12)NCc1cc2ccccc2o1 (centres unmarked) [Example 202, 2-[(Benzofuran-2-ylmethyl)-amino]-3-(1H-indol-3-yl)-N-pyrrolidin-3-ylmethyl-propionamide] gave an IC50 of 2180 nM.
Work on O=C(NCCCn1ccnc1)C(Cc1c[nH]c2ccccc12)NCc1cc2ccccc2o1 (centres unmarked) [Example 201, 2-[(Benzofuran-2-ylmethyl)-amino]-N-(3-imidazol-1-yl-propyl)-3-(1H-indol-3-yl)-propionamide] yielded an IC50 greater than 10000 nM.
In the case of CCC(NC(=O)C(Cc1c[nH]c2ccccc12)NCc1cc2ccccc2o1)c1cccs1 (centres unmarked) [Example 196, 2-[(Benzofuran-2-ylmethyl)-amino]-3-(1H-indol-3-yl)-N-(1-thiophen-2-yl-propyl)-propionamide], the IC50 is reported as 92 nM.
O=C(NC(CO)Cc1ccccc1)C(Cc1c[nH]c2ccccc12)NCc1cc2ccccc2o1 (centres unmarked) [Example 289, 2-[(Benzofuran-2-ylmethyl)-amino]-N-(1-hydroxymethyl-2-phenyl-ethyl)-3-(1H-indol-3-yl)-propionamide] gave an IC50 of 209 nM.
O=C(NCC1CCCO1)C(Cc1c[nH]c2ccccc12)NCc1cc2ccccc2o1 (centres unmarked) [Example 223, 2-[(Benzofuran-2-ylmethyl)-amino]-3-(1H-indol-3-yl)-N-(tetrahydro-furan-2-ylmethyl)-propionamide] gave an IC50 greater than 10000 nM.
O=C(NCc1ccc(Cl)c(Cl)c1)C(Cc1c[nH]c2ccccc12)NCc1cc2ccccc2o1 (centres unmarked) [Example 279, 2-[(Benzofuran-2-ylmethyl)-amino]-N-(3,4-dichloro-benzyl)-3-(1H-indol-3-yl)-propionamide] showed an IC50 of 30 nM.
With O=C(NCCc1ccc([N+](=O)[O-])cc1)C(Cc1c[nH]c2ccccc12)NCc1cc2ccccc2o1 (centres unmarked) [Example 281, 2-[(Benzofuran-2-ylmethyl)-amino]-3-(1H-indol-3-yl)-N-[2-(4-nitro-phenyl)-ethyl]-propionamide] the IC50 was 51 nM.
With O=C(NCc1ccncc1)C(Cc1c[nH]c2ccccc12)NCc1cc2ccccc2o1 (centres unmarked) [Example 240] the IC50 was 196 nM.
O=C(NCc1nc2ccccc2[nH]1)C(Cc1c[nH]c2ccccc12)NCc1cc2ccccc2o1 (centres unmarked) [Example 250, 2-[(Benzofuran-2-ylmethyl)-amino]-N-(1H-benzoimidazol-2-ylmethyl)-3-(1H-indol-3-yl)-propionamide] gave an IC50 of 3410 nM.
O=C(NCc1ccc(F)cc1F)C(Cc1c[nH]c2ccccc12)NCc1cc2ccccc2o1 (centres unmarked) [Example 301, 2-[(Benzofuran-2-ylmethyl)-amino]-N-(2,4-difluoro-benzyl)-3-(1H-indol-3-yl)-propionamide] gave an IC50 of 53 nM.
With O=C(NCCc1ccc(F)cc1)C(Cc1c[nH]c2ccccc12)NCc1cc2ccccc2o1 (centres unmarked) [Example 284, 2-[(Benzofuran-2-ylmethyl)-amino]-N-[2-(4-fluoro-phenyl)-ethyl]-3-(1H-indol-3-yl)-propionamide] the IC50 was 62 nM.
Compound CC(CNC(=O)C(Cc1c[nH]c2ccccc12)NCc1cc2ccccc2o1)c1ccccc1 (centres unmarked) [Example 233, 2-[(Benzofuran-2-ylmethyl)-amino]-3-(1H-indol-3-yl)-N-(2-phenyl-propyl)-propionamide] has an IC50 of 2000 nM.
For CC(NC(=O)C(Cc1c[nH]c2ccccc12)NCc1cc2ccccc2o1)c1ccc(Cl)cc1 (centres unmarked) [Example 264, 2-[(Benzofuran-2-ylmethyl)-amino]-N-[1(4-chloro-phenyl)-ethyl]-3-(1H-indol-3-yl)-propionamide], the IC50 was 7 nM.

Same assay, conditions: Table 4; [125I]Bolton-Hunter substance P displacement, human IM9 cells; read-out: IC50 (nM) hNK1
“3-(1H-Indol-3-yl)-2-methyl-N-(1-phenyl-ethyl)-2-[4-(4-phenyl-piperidin-1-yl)-benzylamino]-propionamide [compound 334]” was tested, and the IC50 was greater than 10000 nM.

Same assay, conditions: Table 5; [125I]Bolton-Hunter substance P displacement, human IM9 cells; read-out: IC50 (nM) hNK1
COc1ccc(CNC(Cc2c[nH]c3ccccc23)C(=O)NC(C)c2ccccc2)cc1OC (centres unmarked) [compound 397] was tested, and the IC50 was greater than 10000 nM.
Compound CC(NC(=O)C(Cc1c[nH]c2ccccc12)NCC=Cc1ccc2c(c1)OCO2)c1ccccc1 (centres unmarked) [compound 377] has an IC50 of 593 nM.
In the case of Cc1cc(CNC(Cc2c[nH]c3ccccc23)C(=O)NC(C)c2ccccc2)c(C)n1-c1ccccc1 (centres unmarked) [compound 392], the IC50 is reported as greater than 10000 nM.
Compound CC(NC(=O)C(Cc1c[nH]c2ccccc12)NCc1cccnc1)c1ccccc1 (centres unmarked) [compound 393] has an IC50 of 802 nM.

Same assay, conditions: human NK1 receptor, IM9 cells, [125I]Bolton-Hunter substance P; read-out: IC50 (nM) hNK1
CC(NC(=O)C(C)(Cc1c[nH]c2ccccc12)NCc1cc2ccccc2o1)c1ccccn1 (centres unmarked) [compound 69, 2-[(Benzofuran-2-ylmethyl)-amino]-3-(1H-indol-3-yl)-2-methyl-N-(1-pyridin-2-yl-ethyl)-propionamide] was tested, and the IC50 was 12 nM.
For CC(NC(=O)C(C)(Cc1c[nH]c2ccccc12)NCc1cc2ccccc2o1)c1ccccc1N (centres unmarked) [compound 36, N-[1-(2-Amino-phenyl)-ethyl]-2-[(benzofuran-2-ylmethyl)-amino]-3-(1H-indol-3-yl)-2-methyl-propionamide], the IC50 was 1620 nM.
For CCC(NC(=O)C(C)(Cc1c[nH]c2ccccc12)NCc1cc2ccccc2o1)c1ccccc1 (centres unmarked) [compound 162, 2-[(Benzofuran-2-ylmethyl)-amino]-3-(1H-indol-3-yl)-2-methyl-N-(1-phenyl-propyl)-propionamide], the IC50 was 42 nM.
Work on CC(Cc1c[nH]c2ccccc12)(NCc1cc2ccccc2o1)C(=O)NCCC1CCCCC1 (centres unmarked) [compound 70, 2-[(Benzofuran-2-ylmethyl)-amino]-N-(2-cyclohexyl-ethyl)-3-(1H-indol-3-yl)-2-methyl-propionamide] yielded an IC50 of 216 nM.
CC(Cc1c[nH]c2ccccc12)(NCc1cc2ccccc2o1)C(=O)NCc1cccc(Cl)c1 (centres unmarked) [compound 77, 2-[(Benzofuran-2-ylmethyl)-amino]-N-(3-chloro-benzyl)-3-(1H-indol-3-yl)-2-methyl-propionamide] showed an IC50 of 17 nM.
CC(Cc1c[nH]c2ccccc12)(NCc1cc2ccccc2o1)C(=O)NCC1(c2ccccc2)OCCO1 (centres unmarked) [compound 105] gave an IC50 greater than 10000 nM.
CC(Cc1c[nH]c2ccccc12)(NCc1cc2ccccc2o1)C(=O)NCC(O)c1ccccc1 (centres unmarked) [compound 50, 2-[(Benzofuran-2-ylmethyl)-amino]-N-(2-hydroxy-2-phenyl-ethyl)-3-(1H-indol-3-yl)-2-methyl-propionamide] was tested, and the IC50 was 1330 nM.
For CC(NC(=O)C(C)(Cc1c[nH]c2ccccc12)NCc1cc2ccccc2o1)c1cc(Cl)sc1Cl (centres unmarked) [compound 122, 2-[(Benzofuran-2-ylmethyl)-amino]-N-[1-(2,5-dichloro-thiophen-3-yl)-ethyl]-3-(1H-indol-3-yl)-2-methyl-propionamide], the IC50 was 442 nM.
CC(Cc1c[nH]c2ccccc12)(NCc1cc2ccccc2o1)C(=O)NCCc1c[nH]cn1 (centres unmarked) [compound 97, 2-[(Benzofuran-2-ylmethyl)-amino]-N-[2-(1H-imidazol-4-yl)-ethyl]-3-(1H-indol-3-yl)-2-methyl-propionamide] was tested, and the IC50 was greater than 10000 nM.
Work on CC(Cc1c[nH]c2ccccc12)(NCc1cc2ccccc2o1)C(=O)NC(Cc1ccccc1)c1ccccc1 (centres unmarked) [compound 75, 2-[(Benzofuran-2-ylmethyl)-amino]-N-(1,2-diphenyl-ethyl)-3-(1H-indol-3-yl)-2-methyl-propionamide] yielded an IC50 greater than 10000 nM.
In the case of CC(Cc1c[nH]c2ccccc12)(NCc1cc2ccccc2o1)C(=O)NCc1cnc2ccccc2c1 (centres unmarked) [compound 151, 2-[(Benzofuran-2-ylmethyl)-amino]-3-(1H-indol-3-yl)-2-methyl-N-quinolin-3-ylmethyl-propionamide], the IC50 is reported as 1210 nM.
CC(Cc1c[nH]c2ccccc12)(NCc1cc2ccccc2o1)C(=O)NCC(=O)c1ccccc1 (centres unmarked) [compound 163, 2-[(Benzofuran-2-ylmethyl)-amino]-3-(1H-indol-3-yl)-2-methyl-N-(2-oxo-2-phenyl-ethyl)-propionamide] was tested, and the IC50 was 166 nM.
With CC(Cc1c[nH]c2ccccc12)(NCc1cc2ccccc2o1)C(=O)NCc1ccc([N+](=O)[O-])o1 (centres unmarked) [compound 100, 2-[(Benzofuran-2-ylmethyl)-amino]-3-(1H-indol-3-yl)-2-methyl-N-(5-nitro-furan-2-ylmethyl)-propionamide] the IC50 was 390 nM.
For COc1ccc(CNC(=O)C(C)(Cc2c[nH]c3ccccc23)NCc2cc3ccccc3o2)cc1 (centres unmarked) [compound 68, 2-[(Benzofuran-2-ylmethyl)-amino]-3-(1H-indol-3-yl)-N-(4-methoxy-benzyl)-2-methyl-propionamide], the IC50 was 312 nM.
CC(Cc1c[nH]c2ccccc12)(NCc1cc2ccccc2o1)C(=O)NCCN1CCCC1=O (centres unmarked) [compound 99, 2-[(Benzofuran-2-ylmethyl)-amino]-3-(1H-indol-3-yl)-2-methyl-N-[2-(2-oxo-pyrrolidin-1-yl)-ethyl]-propionamide] showed an IC50 greater than 10000 nM.
CC(Cc1n[nH]c2ccccc12)NC(=O)C(C)(Cc1c[nH]c2ccccc12)NCc1cc2ccccc2o1 (centres unmarked) [compound 120, 2-[(Benzofuran-2-ylmethyl)-amino]-N-[2-(1H-indazol-3-yl)-1-methyl-ethyl]-3-(1H-indol-3-yl)-2-methyl-propionamide] gave an IC50 of 2650 nM.
